# Assay results taken from ChEMBL document CHEMBL1201862, “PubChem BioAssay data set” (2004).
# Active and inactive are the calls of the source.
# Legend:
# [1] = tested on: Escherichia coli; assay: microbe, parasite or virus in culture
# [2] = biological target: T1, Short transient receptor potential channel 4 (Mus musculus, UniProt Q9QUQ5); assay: mouse TRPC4 channel activators, dose response, cell-based, HEK293 TRPC4/mu-opioid, Fluo-4 calcium (AID 434937); assay type: functional
# T1 sequence (Q9QUQ5 whole entry): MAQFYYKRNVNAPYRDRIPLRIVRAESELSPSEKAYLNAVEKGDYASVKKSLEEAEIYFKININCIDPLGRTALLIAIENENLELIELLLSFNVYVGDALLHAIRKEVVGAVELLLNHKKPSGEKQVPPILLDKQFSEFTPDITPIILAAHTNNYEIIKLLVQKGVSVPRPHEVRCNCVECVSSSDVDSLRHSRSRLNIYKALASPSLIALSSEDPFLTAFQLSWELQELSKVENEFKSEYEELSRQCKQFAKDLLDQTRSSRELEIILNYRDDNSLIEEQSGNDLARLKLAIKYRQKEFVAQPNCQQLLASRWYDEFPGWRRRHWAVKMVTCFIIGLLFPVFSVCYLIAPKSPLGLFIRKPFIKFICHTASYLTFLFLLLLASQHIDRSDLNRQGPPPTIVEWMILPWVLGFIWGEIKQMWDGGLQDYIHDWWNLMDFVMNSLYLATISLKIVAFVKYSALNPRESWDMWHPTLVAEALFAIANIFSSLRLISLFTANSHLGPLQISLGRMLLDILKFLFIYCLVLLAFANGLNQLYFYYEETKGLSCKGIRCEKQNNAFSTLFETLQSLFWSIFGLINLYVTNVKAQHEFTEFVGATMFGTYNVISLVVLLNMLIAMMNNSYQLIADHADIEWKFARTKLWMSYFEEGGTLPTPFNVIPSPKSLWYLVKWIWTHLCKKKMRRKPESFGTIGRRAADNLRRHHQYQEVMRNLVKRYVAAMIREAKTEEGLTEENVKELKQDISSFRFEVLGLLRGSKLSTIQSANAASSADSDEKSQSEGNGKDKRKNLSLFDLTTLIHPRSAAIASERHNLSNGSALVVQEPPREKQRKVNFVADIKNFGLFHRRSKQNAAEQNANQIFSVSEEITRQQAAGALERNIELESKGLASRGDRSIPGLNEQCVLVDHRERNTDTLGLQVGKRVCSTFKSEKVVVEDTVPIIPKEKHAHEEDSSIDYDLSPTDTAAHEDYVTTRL
# [3] = biological target: T2, Microphthalmia-associated transcription factor (Homo sapiens, UniProt O75030); assay: TRPM1 promoter luciferase signal decrease, dose response, MITF inhibitor project, cell-based, SK-MEL-5, cherry-picked, set 3 (AID 493073); assay type: functional
# T2 sequence (O75030 whole entry): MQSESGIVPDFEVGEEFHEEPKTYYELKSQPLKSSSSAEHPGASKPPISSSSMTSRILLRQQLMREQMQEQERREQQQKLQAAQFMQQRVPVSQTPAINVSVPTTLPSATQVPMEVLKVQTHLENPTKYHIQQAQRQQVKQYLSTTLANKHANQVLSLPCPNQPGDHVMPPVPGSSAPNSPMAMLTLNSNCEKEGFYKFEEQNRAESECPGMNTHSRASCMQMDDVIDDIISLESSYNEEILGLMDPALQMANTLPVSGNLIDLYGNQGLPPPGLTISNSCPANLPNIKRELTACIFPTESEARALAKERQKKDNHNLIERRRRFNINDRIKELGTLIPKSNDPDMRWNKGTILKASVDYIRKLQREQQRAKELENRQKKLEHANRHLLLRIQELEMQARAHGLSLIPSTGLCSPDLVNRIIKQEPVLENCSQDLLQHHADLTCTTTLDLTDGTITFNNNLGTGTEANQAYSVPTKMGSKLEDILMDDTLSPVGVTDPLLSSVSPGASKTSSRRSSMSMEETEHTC
# [4] = tested on: A-375; assay: MITF: Counter assay: A375 proliferation Measured in Cell-Based System Using Plate Reader - 2084-03_Inhibitor_Dose_DryPowder_Activity. [Related pubchem assays (depositor defined):AID488944]; assay type: functional; details: Homo sapiens
# [5] = A Cell Based Secondary Assay To Explore Cytotoxicity of Compounds that Sensitize Mycobacterium Tuberculosis to Beta-Lactam Antibiotics.; assay type: functional
# [6] = tested on: Escherichia coli; assay: microbe, parasite or virus in culture; remark: listed apart in the source
# [7] = biological target: 5-hydroxytryptamine receptor 5A (Homo sapiens, UniProt P47898); assay: Counterscreen for agonists of OPRM1-OPRD1 heterodimerization: luminescence-based cell-based high throughput dose response assay to identify agonists of 5-hydroxytryptamine (serotonin) 5A receptor (HTR5A). [Related pubchem assays (depositor defined):AID504326, AID504355, AID504692, AID504904, AID504905]; assay type: functional
# Sequence of 5-hydroxytryptamine receptor 5A (P47898 whole entry): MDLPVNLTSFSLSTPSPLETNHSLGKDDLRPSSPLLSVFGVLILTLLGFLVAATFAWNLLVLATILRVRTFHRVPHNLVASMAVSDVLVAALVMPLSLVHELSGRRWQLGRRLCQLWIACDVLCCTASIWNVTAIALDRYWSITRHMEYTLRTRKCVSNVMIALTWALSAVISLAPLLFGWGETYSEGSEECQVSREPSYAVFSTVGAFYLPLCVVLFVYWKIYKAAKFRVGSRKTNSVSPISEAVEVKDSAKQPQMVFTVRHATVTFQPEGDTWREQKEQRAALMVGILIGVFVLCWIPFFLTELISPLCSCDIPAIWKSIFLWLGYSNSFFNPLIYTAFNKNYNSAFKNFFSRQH
# [8] = biological target: T1, Short transient receptor potential channel 4; assay: mouse TRPC4 channel inhibitors, dose response, cell-based, HEK293 TRPC4/mu-opioid, Fluo-4 calcium (AID 434942); assay type: functional;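 note: potency of inhibitors blocking the TRPC4 calcium response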
# [9] = biological target: Delta-type opioid receptor (Homo sapiens, UniProt P41143); assay: Counterscreen for agonists of heterodimerization of the mu 1 (OPRM1) and delta 1 (OPRD1) opioid receptors: Luminescence-based cell-based high throughput dose response assay to identify agonists of OPRD1 homodimerization. [Related pubchem assays (depositor defined):AID504326, AID504355, AID504692, AID504904, AID504905]; assay type: functional
# Sequence of Delta-type opioid receptor (P41143 whole entry): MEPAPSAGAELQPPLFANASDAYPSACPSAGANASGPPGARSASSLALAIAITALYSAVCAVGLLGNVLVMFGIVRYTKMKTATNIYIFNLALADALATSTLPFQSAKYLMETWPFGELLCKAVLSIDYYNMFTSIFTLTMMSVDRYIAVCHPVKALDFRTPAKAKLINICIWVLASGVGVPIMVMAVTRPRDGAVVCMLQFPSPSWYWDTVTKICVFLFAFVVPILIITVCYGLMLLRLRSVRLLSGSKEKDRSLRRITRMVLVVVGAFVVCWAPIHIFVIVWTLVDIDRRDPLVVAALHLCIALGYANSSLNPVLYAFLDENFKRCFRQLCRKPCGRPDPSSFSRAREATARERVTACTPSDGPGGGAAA
# [10] = biological target: Mu-type opioid receptor (Homo sapiens, UniProt P35372); assay: Counterscreen for agonists of heterodimerization of the mu 1 (OPRM1) and delta 1 (OPRD1) opioid receptors: Luminescence-based cell-based high throughput dose response assay to identify agonists of OPRM1 homodimerization.; assay type: functional;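 note: U2OS cells expressing OPRM1 and beta-arrestin as split beta-galactosidase partners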
# Sequence of Mu-type opioid receptor (P35372 whole entry): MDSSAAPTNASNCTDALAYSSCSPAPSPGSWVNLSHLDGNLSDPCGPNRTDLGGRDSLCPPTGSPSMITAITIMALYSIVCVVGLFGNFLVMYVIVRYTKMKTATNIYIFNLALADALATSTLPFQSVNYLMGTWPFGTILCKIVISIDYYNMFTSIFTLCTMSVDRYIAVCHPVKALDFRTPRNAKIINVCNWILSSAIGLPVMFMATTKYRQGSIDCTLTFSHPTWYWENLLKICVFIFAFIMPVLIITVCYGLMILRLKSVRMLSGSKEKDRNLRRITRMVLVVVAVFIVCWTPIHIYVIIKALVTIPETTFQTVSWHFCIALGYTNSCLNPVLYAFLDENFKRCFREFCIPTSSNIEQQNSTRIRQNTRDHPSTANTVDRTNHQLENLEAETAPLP
# [11] = biological target: Peroxisome proliferator-activated receptor gamma/Nuclear receptor coactivator 3 (Homo sapiens, UniProt P37231); assay: TR-FRET dose response biochemical High Throughput Screening assay for agonists of the steroid receptor coactivator 3 (SRC-3) recruitment by the peroxisome proliferator-activated receptor gamma (PPAR gamma): non-selective agonists. [Related pubchem assays: 1301 (Confirmation screen.), 1048 (Primary screen.)]; assay type: functional
# [12] = tested on: Vero; assay: cells; assay type: functional, cell-based; details: Chlorocebus sabaeus
# [13] = biological target: Peroxisome proliferator-activated receptor gamma/Nuclear receptor coactivator 2 (Homo sapiens, UniProt P37231); assay: TR-FRET dose response biochemical High Throughput Screening assay for agonists of the steroid receptor coactivator 2 (SRC-2) recruitment by the peroxisome proliferator-activated receptor gamma (PPAR gamma): non-selective agonists. [Related pubchem assays: 1297, 1032 ]; assay type: functional
# Sequence of Peroxisome proliferator-activated receptor gamma/Nuclear receptor coactivator 2 (P37231 whole entry): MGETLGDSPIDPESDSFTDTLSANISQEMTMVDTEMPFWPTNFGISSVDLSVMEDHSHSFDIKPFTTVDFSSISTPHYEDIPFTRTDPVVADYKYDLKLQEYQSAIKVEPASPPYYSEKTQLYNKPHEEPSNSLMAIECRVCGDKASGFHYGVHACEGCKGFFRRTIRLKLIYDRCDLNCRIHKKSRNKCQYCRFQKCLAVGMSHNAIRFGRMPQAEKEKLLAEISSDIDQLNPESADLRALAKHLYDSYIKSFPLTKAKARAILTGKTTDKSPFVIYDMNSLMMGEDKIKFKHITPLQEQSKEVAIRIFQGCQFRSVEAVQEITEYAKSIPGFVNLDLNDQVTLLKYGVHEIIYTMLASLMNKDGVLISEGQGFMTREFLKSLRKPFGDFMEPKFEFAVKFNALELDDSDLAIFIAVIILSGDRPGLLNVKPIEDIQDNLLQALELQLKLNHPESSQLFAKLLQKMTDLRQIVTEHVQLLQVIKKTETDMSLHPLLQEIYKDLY
# Sequence of Peroxisome proliferator-activated receptor gamma/Nuclear receptor coactivator 2 (Q15596 whole entry, further chain): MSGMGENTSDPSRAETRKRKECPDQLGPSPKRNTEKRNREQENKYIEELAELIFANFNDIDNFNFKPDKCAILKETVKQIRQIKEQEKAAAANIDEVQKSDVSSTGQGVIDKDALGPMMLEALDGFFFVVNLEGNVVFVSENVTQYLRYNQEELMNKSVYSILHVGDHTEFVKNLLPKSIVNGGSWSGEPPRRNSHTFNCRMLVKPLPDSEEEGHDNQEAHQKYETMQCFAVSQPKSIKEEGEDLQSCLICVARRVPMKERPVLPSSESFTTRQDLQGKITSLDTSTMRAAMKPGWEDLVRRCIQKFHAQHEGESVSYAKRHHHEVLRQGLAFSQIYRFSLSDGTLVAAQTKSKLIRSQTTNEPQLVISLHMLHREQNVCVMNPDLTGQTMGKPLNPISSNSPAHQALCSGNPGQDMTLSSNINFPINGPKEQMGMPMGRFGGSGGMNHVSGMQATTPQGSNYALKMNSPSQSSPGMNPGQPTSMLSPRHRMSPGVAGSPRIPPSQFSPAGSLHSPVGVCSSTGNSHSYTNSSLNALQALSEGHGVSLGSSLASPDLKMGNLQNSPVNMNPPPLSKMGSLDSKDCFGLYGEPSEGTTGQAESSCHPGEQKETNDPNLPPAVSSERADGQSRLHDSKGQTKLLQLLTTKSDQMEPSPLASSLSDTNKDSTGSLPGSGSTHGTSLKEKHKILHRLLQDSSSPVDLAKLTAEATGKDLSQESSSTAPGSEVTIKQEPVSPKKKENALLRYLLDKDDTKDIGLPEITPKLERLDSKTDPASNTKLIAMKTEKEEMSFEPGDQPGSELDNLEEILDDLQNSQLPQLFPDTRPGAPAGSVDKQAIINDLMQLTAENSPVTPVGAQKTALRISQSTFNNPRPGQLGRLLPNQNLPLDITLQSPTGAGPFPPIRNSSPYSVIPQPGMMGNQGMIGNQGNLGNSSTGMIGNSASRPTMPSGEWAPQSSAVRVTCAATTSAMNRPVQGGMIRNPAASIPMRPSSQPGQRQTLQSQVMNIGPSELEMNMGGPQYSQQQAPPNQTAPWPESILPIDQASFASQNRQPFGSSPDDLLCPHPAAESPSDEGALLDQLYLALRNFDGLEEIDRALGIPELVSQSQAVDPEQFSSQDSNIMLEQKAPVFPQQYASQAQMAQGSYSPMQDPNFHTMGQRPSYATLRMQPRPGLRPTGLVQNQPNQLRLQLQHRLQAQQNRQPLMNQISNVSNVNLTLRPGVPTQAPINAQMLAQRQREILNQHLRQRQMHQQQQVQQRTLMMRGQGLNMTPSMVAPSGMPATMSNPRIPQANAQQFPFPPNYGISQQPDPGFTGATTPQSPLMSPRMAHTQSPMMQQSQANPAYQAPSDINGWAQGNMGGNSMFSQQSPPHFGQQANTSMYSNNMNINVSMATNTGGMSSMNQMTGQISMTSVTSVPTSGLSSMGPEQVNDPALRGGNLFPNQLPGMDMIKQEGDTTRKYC
# [14] = biological target: Peroxisome proliferator-activated receptor gamma/Nuclear receptor coactivator 1 (Homo sapiens, UniProt P37231); assay: TR-FRET dose response biochemical High Throughput Screening assay for agonists of the steroid receptor coactivator 1 (SRC-1) recruitment by the peroxisome proliferator-activated receptor gamma (PPAR gamma): non-selective agonists. [Related pubchem assays (depositor defined):AID1300, AID1808, AID504735, AID631]; assay type: protein assay
# Sequence of Peroxisome proliferator-activated receptor gamma/Nuclear receptor coactivator 1 (P37231 whole entry): as the sequence (P37231 whole entry) above
# Sequence of Peroxisome proliferator-activated receptor gamma/Nuclear receptor coactivator 1 (Q15788 whole entry, further chain): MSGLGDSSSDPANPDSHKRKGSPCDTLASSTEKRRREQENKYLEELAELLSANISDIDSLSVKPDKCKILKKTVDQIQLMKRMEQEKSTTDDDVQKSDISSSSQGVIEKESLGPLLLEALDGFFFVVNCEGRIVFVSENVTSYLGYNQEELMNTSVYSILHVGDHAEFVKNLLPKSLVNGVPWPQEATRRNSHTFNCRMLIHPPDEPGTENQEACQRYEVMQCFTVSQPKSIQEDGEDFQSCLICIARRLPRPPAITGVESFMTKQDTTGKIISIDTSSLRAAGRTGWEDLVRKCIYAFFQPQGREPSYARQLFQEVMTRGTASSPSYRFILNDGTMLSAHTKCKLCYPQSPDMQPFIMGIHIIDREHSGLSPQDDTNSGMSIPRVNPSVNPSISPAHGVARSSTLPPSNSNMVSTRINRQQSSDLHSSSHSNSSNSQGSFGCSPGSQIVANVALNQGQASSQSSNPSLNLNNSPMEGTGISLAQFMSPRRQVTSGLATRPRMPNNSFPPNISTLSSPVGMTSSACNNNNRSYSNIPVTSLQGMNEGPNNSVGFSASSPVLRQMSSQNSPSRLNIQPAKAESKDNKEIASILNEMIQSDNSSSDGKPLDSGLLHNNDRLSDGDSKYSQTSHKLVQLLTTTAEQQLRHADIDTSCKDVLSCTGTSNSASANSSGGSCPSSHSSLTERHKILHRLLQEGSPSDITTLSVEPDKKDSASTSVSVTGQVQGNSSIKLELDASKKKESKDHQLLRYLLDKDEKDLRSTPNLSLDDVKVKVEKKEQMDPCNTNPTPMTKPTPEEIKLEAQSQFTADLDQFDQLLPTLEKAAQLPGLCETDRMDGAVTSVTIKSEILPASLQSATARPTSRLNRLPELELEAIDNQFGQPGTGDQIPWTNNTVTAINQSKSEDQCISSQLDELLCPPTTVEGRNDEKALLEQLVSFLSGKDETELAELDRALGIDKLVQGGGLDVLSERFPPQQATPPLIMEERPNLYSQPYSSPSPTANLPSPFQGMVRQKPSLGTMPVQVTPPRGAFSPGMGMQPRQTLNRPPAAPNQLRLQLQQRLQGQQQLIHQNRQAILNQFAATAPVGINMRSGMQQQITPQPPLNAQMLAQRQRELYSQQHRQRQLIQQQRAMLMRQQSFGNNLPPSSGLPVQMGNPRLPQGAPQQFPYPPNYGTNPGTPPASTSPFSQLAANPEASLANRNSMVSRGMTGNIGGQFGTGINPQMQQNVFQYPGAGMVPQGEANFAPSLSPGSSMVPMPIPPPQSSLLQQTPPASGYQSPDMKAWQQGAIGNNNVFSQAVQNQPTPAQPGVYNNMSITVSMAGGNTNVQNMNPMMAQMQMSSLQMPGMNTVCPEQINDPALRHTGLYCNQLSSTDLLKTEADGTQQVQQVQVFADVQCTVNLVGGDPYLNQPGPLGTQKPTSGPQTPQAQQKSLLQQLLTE
# [15] = tested on: BJ; assay: cytotoxicity toward BJ-TERT-LT-ST fibroblasts, dose response, cell-based, RAS-independent, luminescence (AID 1935); assay type: functional; details: Homo sapiens;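 note: BJ fibroblasts immortalized with TERT plus LT and ST oncogenes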
# [16] = Counterscreen for antagonists of the orexin 1 receptor (OX1R; HCRTR1): Fluorescence-based cell-based high throughput dose response assay to identify antagonists of the parental CHO cell line. [Related pubchem assays (depositor defined):AID434989, AID435008, AID463079, AID485270, AID492963, AID492964, AID492965, AID493232, AID504699, AID504701]; assay type: functional
# [17] = tested on: BJ; assay: cells; assay type: functional, cell-based; details: Homo sapiens
# [18] = biological target: T3, Orexin/Hypocretin receptor type 1 (Homo sapiens, UniProt O43613); assay: Fluorescence-based cell-based high throughput dose response assay for antagonists of the orexin 1 receptor (OX1R; HCRTR1). [Related pubchem assays (depositor defined):AID434989, AID435008, AID463079, AID485270, AID492963, AID492964, AID492965, AID493232, AID504717, AID504718]; assay type: functional
# T3 sequence (O43613 whole entry): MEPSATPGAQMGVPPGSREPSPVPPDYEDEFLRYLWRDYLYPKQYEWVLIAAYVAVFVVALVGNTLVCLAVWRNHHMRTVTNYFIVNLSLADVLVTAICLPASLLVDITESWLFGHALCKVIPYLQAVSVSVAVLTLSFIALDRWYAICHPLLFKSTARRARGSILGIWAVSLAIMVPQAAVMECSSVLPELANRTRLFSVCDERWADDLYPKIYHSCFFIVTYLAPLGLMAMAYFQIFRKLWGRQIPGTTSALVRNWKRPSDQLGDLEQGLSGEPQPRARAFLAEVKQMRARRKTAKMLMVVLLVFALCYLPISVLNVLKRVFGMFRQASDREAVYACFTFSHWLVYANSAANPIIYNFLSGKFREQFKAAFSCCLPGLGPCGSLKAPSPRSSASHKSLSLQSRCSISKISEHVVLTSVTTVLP
# [19] = cytotoxicity in HEK-293T NF-kB-Luc cells, dose response, cytotoxicity control for B/T-cell NF-kB inhibitor project, cell-based, uHTS hits (AID 489019); assay type: functional;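 note: IC50 reflects cytotoxicity as loss of cell viability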
# [20] = tested on: BJ; assay: cytotoxicity toward BJ-TERT fibroblasts, dose response, cell-based, RAS-independent, luminescence (AID 1933); assay type: functional; details: Homo sapiens
# [21] = biological target: T3, Orexin/Hypocretin receptor type 1; assay: Homogeneous Time Resolved Fluorescence (HTRF)-based cell-based high throughput dose response assay for antagonists of the orexin 1 receptor (OX1R; HCRTR1). [Related pubchem assays (depositor defined):AID434989, AID435008, AID463079, AID485270, AID492963, AID492964, AID492965, AID493232, AID504717, AID504718]; assay type: functional
# [22] = biological target: T4, Orexin receptor type 2 (Homo sapiens, UniProt O43614); assay: Counterscreen assay for antagonists of the orexin 1 receptor (OX1R; HCRTR1): Homogeneous Time Resolved Fluorescence (HTRF)-based cell-based dose response assay for antagonists of the orexin 2 receptor (OX2R; HCRTR2), run by assay provider.; assay type: functional
# T4 sequence (O43614 whole entry): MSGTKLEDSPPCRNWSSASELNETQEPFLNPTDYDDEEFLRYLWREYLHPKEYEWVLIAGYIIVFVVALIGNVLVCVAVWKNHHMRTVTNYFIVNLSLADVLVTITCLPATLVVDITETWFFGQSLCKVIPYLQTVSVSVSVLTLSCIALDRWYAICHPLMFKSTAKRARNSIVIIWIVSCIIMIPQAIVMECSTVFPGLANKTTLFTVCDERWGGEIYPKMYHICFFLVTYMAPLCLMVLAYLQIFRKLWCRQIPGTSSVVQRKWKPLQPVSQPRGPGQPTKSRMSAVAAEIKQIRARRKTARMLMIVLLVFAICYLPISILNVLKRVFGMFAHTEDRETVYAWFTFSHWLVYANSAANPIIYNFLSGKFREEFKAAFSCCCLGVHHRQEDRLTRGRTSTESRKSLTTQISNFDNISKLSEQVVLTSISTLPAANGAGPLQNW
# [23] = tested on: Jurkat; assay: antigen receptor-induced NF-kB inhibitors, dose response, Jurkat, luciferase reporter, luminescence, B- and T-cell (AID 489004); assay type: functional, cell-based; details: Homo sapiens;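 note: NF-kB luciferase reporter Jurkat cells stimulated with PMA plus ionomycin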
# [24] = biological target: T4, Orexin receptor type 2; assay: Counterscreen assay for antagonists of the orexin 1 receptor (OX1R; HCRTR1): Fluorescence-based cell-based dose response assay for antagonists of the orexin 2 receptor (OX2R; HCRTR2), run by assay provider.; assay type: functional
# [25] = cytotoxicity toward DRD oncogenic fibroblasts, dose response, cell-based, non-viral oncogenic, luminescence (AID 1934); assay type: functional; details: Homo sapiens
# [26] = tested on: CHO-K1; assay: Counterscreen for antagonists of the orexin 1 receptor (OX1R; HCRTR1): Homogeneous time resolved fluorescence (HTRF)-based cell-based dose response assay to identify antagonists of the parental CHO-K1 cell line. [Related pubchem assays (depositor defined):AID434989, AID435008, AID463079, AID485270, AID492963, AID492964, AID492965, AID493232, AID504699, AID504701]; assay type: functional; details: Cricetulus griseus;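 note: potency for inhibition of ATP-stimulated IP1 production as antagonists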
structure (smiles),measurement,setting,value
O=C(NCc1ccccc1)c1ccc(CS(=O)(=O)c2ccccc2)o1,AC50,[1],28.6 µM (active)
CC(C)C1CC(CCNCc2ccc(N(C)C)cc2)(c2ccccc2)CCO1 (configuration not stated),EC50,[2],6.68 µM (active)
same,AC50,[3],11.1 µM (active)
same,AC50,[4],20.7 µM (active)
same,CC50,[5],33.3 µM (active)
CC(C)(C)OC(=O)N1CCCC(C(=O)Nc2cccc(C(=O)NCCc3ccccc3)c2)C1 (configuration not stated),AC50,[6],322 µM (active)
same,AC50,[1],21.1 µM (active)
COc1ccc2c(c1)C=C(CN1CCC(CO)(CCc3ccccc3)CC1)CO2,EC50,[7],> 92.5 µM (inactive)
same,EC50,[8],2.11 µM (active)
same,EC50,[9],67.7 µM (inactive)
same,EC50,[10],85.9 µM (inactive)
Sc1nnc(-c2ccccn2)n1/N=C/c1ccc(-c2ccccc2Br)o1,EC50,[11],> 79.4 µM (not active)
same,IC50,[12],23.4 µM (active)
same,EC50,[13],2.83 µM (active)
same,EC50,[14],2.75 µM (active)
Cc1nn(-c2ccccc2)c(C)c1/C=N/NC(=O)c1cc(-c2cccs2)[nH]n1,EC50,[15],0.601 µM (inconclusive)
same,IC50,[16],> 49.7 µM (inactive)
same,EC50,[17],0.79 µM (active)
same,IC50,[18],3.99 µM (active)
same,IC50,[19],9.45 µM (active)
same,EC50,[20],0.66 µM (inconclusive)
same,IC50,[21],2.99 µM (active)
same,IC50,[22],> 50 µM (inactive)
same,IC50,[23],10.3 µM (active)
same,IC50,[24],37 µM (inactive)
same,EC50,[25],0.644 µM (inconclusive)
same,IC50,[26],> 66.2 µM (inactive)
